Source: patent publication US20240287172A1, “PROTEIN BINDERS TO IRHOM2 EPITOPES” (SCIRHOM GMBH, priority 2019, published 2024)

Test system: LPS-induced release of endogenous TNFα from human THP-1 monocytic cells
Assay: ELISA-based TNFα release assay, LPS-induced, THP-1 cells
Type: cell-based
Conditions: LPS 50 ng/ml, 2 hours, antibodies purified from hybridoma supernatants and IgG at 10 μg/ml, Batimastat at 10 μM
Method: In the following study, ELISA-based TNFα release assays were performed to verify the inhibitory effects of the purified antibodies of the invention on LPS-induced release of endogenous TNFα from human THP-1 monocytic cells.
In brief, on day 1, Nunc black MaxiSorp® 96-well plates (Thermo Fisher Scientific, USA) were coated overnight with 100 μl per well of mouse anti-human TNFα capture antibody (provided as part of the DuoSet ELISA kit) at 4 μg/ml TBS at 4° C. On day 2, the capture antibody solution was removed and MaxiSorp® plates were blocked with 300 μl per well of TBS, 1% BSA at room temperature for 3 hours. […]
Following another round of 4 times washing with 350 μl TBS-T (Carl Roth, Germany) per well on a 96-head plate washer (Tecan Group, Switzerland) and careful removal of all buffer traces after the fourth cycle, 100 μl AttoPhos substrate solution (Promega, USA) per well was added for incubation in the dark at room temperature for 1 hour. Using an infinite M1000 (Tecan Group, Switzerland) microplate reader, the fluorescence of each well was collected at an excitation wavelength of 435 nm and an emission wavelength of 555 nm. […]

Question: `CNC(=O)[C@H](Cc1ccccc1)NC(=O)[C@H](CC(C)C)[C@H](CSc1cccs1)C(=O)NO` [Batimastat] was tested. Which inhibition at 10 µM did it give?
Answer: Its inhibition at 10 µM is 96.2%.
